Measurements published in patent publication US11180462B2, “Microbiocidal oxadiazole derivatives” (SYNGENTA PARTICIPATIONS AG, priority 2015, dated 2021).

Legend:
Phakopsora Pachyrhizi = assay: Fungicidal activity against Phakopsora pachyrhizi / soybean / leaf disc preventative (Asian soybean rust); format: in vivo; conditions: foliar, 200 ppm in the applied formulation, soybean leaf disks, compared to untreated control leaf disks, read-out: disease control
Method: Leaf disks or leaf segments of various plant species are cut from plants grown in a greenhouse. The cut leaf disks or segments are placed in multiwell plates (24-well format) onto water agar. The leaf disks are sprayed with a test solution before (preventative) or after (curative) inoculation. Compounds to be tested are prepared as DMSO solutions (max. 10 mg/ml) which are diluted to the appropriate concentration with 0.025% Tween20 just before spraying. The inoculated leaf disks or segments are incubated under defined conditions (temperature, relative humidity, light, etc.) according to the respective test system. A single evaluation of disease level is carried out 3 to 14 days after inoculation, depending on the pathosystem. Percent disease control relative to the untreated check leaf disks or segments is then calculated.
Fungicidal Activity Against Phakopsora Pachyrhizi Soybean/Leaf Disc Preventative (Asian Soybean Rust)
Soybean leaf disks are placed on water agar in multiwell plates (24-well format) and sprayed with the formulated test compound diluted in water. One day after application leaf discs are inoculated by spraying a spore suspension on the lower leaf surface. After an incubation period in a climate cabinet of 24-36 hours in darkness at 20° C. and 75% rh leaf disc are kept at 20° C. with 12 h light/day and 75% rh. The activity of a compound is assessed as percent disease control compared to untreated when an appropriate level of disease damage appears in untreated check leaf disks (12 to 14 days after application).
The following compounds at 200 ppm in the applied formulation give at least 80% disease control in this test when compared to untreated control leaf disks under the same conditions, which show extensive disease development.

[1] = tested on: Glomerella lagenarium (Colletotrichum lagenarium); assay: Fungicidal activity against Glomerella lagenarium (Colletotrichum lagenarium) liquid culture / cucumber / preventative (anthracnose); format: cell-based; conditions: Colletotrichum orbiculare; 20 ppm in the applied formulation; liquid culture (PDB), growth inhibition measured photometrically after 3 to 4 days; compared to untreated control; read-out: disease control
Outline: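 Percent activity against the untreated check was derived from photometric growth measurements made 2 to 7 days after conidia in potato dextrose broth were combined with compound at 20 ppm. Cultures were kept dark at 24 °C and 96% humidity.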

[2] = tested on: Puccinia recondita f. Sp. Tritici; assay: Fungicidal activity against Puccinia recondita f. sp. tritici / wheat / leaf disc preventative (brown rust); format: in vivo; conditions: foliar, 200 ppm in the applied formulation, wheat leaf segments, preventative, compared to untreated control leaf disks, read-out: disease control
Outline: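 Percent disease control relative to untreated check segments is scored once disease develops, 7 to 9 days after application. Wheat cv. Kanzler segments receive compound spray (200 ppm in formulation) one day before spore inoculation, then sit at 19° C. and 75% rh under 12 h light/12 h dark.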

[3] = tested on: Puccinia recondita f. Sp. Tritici; assay: Fungicidal activity against Puccinia recondita f. sp. tritici / wheat / leaf disc curative (brown rust); format: in vivo; conditions: foliar, 24 h, 200 ppm in the applied formulation, wheat leaf segments, curative (applied 1 day after inoculation), compared to untreated control leaf disks, read-out: disease control
Outline: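 Inoculate cv. Kanzler segments on agar; hold dark, 19° C, 75% RH. Spray diluted formulated compound at day 1. Incubate 12 h light/12 h dark, same temperature and humidity; score % control vs untreated 6–8 days later.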

CC1CC1C(=O)N(Cc1ccc(-c2noc(C(F)(F)F)n2)cc1)CC(F)(F)F (stereo not drawn) [Compound 1.695, 2-methyl-N-(2,2,2-trifluoroethyl)-N-[[4-[5-(trifluoromethyl)-1,2,4-oxadiazol-3-yl]phenyl]methyl]-cyclopropane-carboxamide]
pest or weed control at 200 ppm (Phakopsora Pachyrhizi): ≥ 80%
inhibition of growth at 20 ppm [1]: ≥ 80%

COCCCC(=O)N(Cc1ccc(-c2noc(C(F)(F)F)n2)cc1)C1COC1 [Compound 1.746, 4-methoxy-N-(oxetan-3-yl)-N-[[4-[5-(trifluoromethyl)-1,2,4-oxadiazol-3-yl]phenyl]methyl]-butanamide]
pest or weed control at 200 ppm (Phakopsora Pachyrhizi): ≥ 80%

C#CCN(Cc1ccc(-c2noc(C(F)(F)F)n2)cc1)C(=O)CC1CC1(F)F (stereo not drawn) [Compound 1.197, 2-(2,2-difluorocyclopropyl)-N-prop-2-ynyl-N-[[4-[5-(trifluoromethyl)-1,2,4-oxadiazol-3-yl]phenyl]methyl]-acetamide]
pest or weed control at 200 ppm (Phakopsora Pachyrhizi): ≥ 80%

O=C(OCCN(Cc1ccc(-c2noc(C(F)(F)F)n2)cc1)C(=O)c1ccccc1Cl)c1ccccc1Cl [Compound 1.710, 2-[(2-chlorobenzoyl)-[[4-[5-(trifluoromethyl)-1,2,4-oxadiazol-3-yl]phenyl]methyl]-amino]ethyl 2-chlorobonzoato]
pest or weed control at 200 ppm (Phakopsora Pachyrhizi): ≥ 80%

CC1(C(=O)N(Cc2ccc(-c3noc(C(F)(F)F)n3)cc2)Cc2ccco2)COC1 [Compound 1.468, N-(2-furylmethyl)-3-methyl-N-[[4-[5-(trifluoromethyl)-1,2,4-oxadiazol-3-yl]phenyl]methyl]-oxetane-3-carboxamide]
pest or weed control at 200 ppm [2]: ≥ 80%
pest or weed control at 200 ppm [3]: ≥ 80%
inhibition of growth at 20 ppm [1]: ≥ 80%

CCN(Cc1ccc(-c2noc(C(F)(F)F)n2)cc1)C(=O)N(C)C1CCC1 [Compound 3.101, 1-cyclobutyl-3-ethyl-1-methyl-3-[[4-[5-(trifluoromethyl)-1,2,4-oxadiazol-3-yl]phenyl]methyl]urea]
pest or weed control at 200 ppm [2]: ≥ 80%
pest or weed control at 200 ppm [3]: ≥ 80%
inhibition of growth at 20 ppm [1]: ≥ 80%

O=C(C1CSC1)N(Cc1ccc(-c2noc(C(F)(F)F)n2)cc1)CC1CCCO1 (stereo not drawn) [Compound 1.421, N-(tetrahydrofuran-2-ylmethyl)-N-[[4-[5-(trifluoromethyl)-1,2,4-oxadiazol-3-yl]phenyl]methyl]-thietane-3-carboxamide]
pest or weed control at 200 ppm [2]: ≥ 80%
pest or weed control at 200 ppm [3]: ≥ 80%
inhibition of growth at 20 ppm [1]: ≥ 80%

CON(Cc1ccc(-c2noc(C(F)(F)F)n2)cc1)C(=O)C1CC1c1ccccc1 (stereo not drawn) [Compound 1.25, N-methoxy-2-phenyl-N-[[4-[5-(trifluoromethyl)-1,2,4-oxadiazol-3-yl]phenyl]methyl]-cyclopropane-carboxamide]
pest or weed control at 200 ppm [2]: ≥ 80%
pest or weed control at 200 ppm [3]: ≥ 80%
inhibition of growth at 20 ppm [1]: ≥ 80%

COCCN(Cc1ccc(-c2noc(C(F)(F)F)n2)cc1)C(=O)C1CCCC1 [Compound 1.332, N-(2-methoxyethyl)-N-[[4-[5-(trifluoromethyl)-1,2,4-oxadiazol-3-yl]phenyl]methyl]-cyclopentane-carboxamide]
pest or weed control at 200 ppm [2]: ≥ 80%
pest or weed control at 200 ppm [3]: ≥ 80%
inhibition of growth at 20 ppm [1]: ≥ 80%

O=C(C1CCC1)N(Cc1ccc(-c2noc(C(F)(F)F)n2)cc1)Cc1ccco1 [Compound 1.458, N-(2-furylmethyl)-N-[[4-[5-(trifluoromethyl)-1,2,4-oxadiazol-3-yl]phenyl]methyl]-cyclobutane-carboxamide]
pest or weed control at 200 ppm [2]: ≥ 80%
pest or weed control at 200 ppm [3]: ≥ 80%
inhibition of growth at 20 ppm [1]: ≥ 80%

CCC(C)N(Cc1ccc(-c2noc(C(F)(F)F)n2)cc1)C(=O)C1CC1(F)F (stereo not drawn) [Compound 1.371, 2,2-difluoro-N-sec-butyl-N-[[4-[5-(trifluoromethyl)-1,2,4-oxadiazol-3-yl]phenyl]methyl]-cyclopropane-carboxamide]
pest or weed control at 200 ppm [2]: ≥ 80%
pest or weed control at 200 ppm [3]: ≥ 80%
inhibition of growth at 20 ppm [1]: ≥ 80%

C#CC(=O)N(Cc1ccc(-c2noc(C(F)(F)F)n2)cc1)C(C)CC (stereo not drawn) [Compound 1.391, N-sec-butyl-N-[[4-[5-(trifluoromethyl)-1,2,4-oxadiazol-3-yl]phenyl]methyl]-prop-2-ynamide]
pest or weed control at 200 ppm [2]: ≥ 80%
pest or weed control at 200 ppm [3]: ≥ 80%
inhibition of growth at 20 ppm [1]: ≥ 80%

CC(C)C(=O)N(Cc1ccc(-c2noc(C(F)(F)F)n2)cc1)Cc1ccco1 [Compound 1.463, N-(2-furylmethyl)-2-methyl-N-[[4-[5-(trifluoromethyl)-1,2,4-oxadiazol-3-yl]phenyl]methyl]-propanamide]
pest or weed control at 200 ppm [2]: ≥ 80%
pest or weed control at 200 ppm [3]: ≥ 80%
inhibition of growth at 20 ppm [1]: ≥ 80%

C#CCOC(=O)NC(C(=O)N(Cc1ccc(-c2noc(C(F)(F)F)n2)cc1)CC1CC1)C(C)C (stereo not drawn) [Compound 1.241, prop-2-ynyl N-[1-(cyclopropylmethyl-[[4-[5-(trifluoromethyl)-1,2,4-oxadiazol-3-yl]phenyl]methyl]-carbamoyl]-2-methyl-propyl]carbamate]
pest or weed control at 200 ppm (Phakopsora Pachyrhizi): ≥ 80%

C#CCN(C(=O)N(C)Cc1ccc(-c2noc(C(F)(F)F)n2)cc1)C1CC1 [Compound 3.80, 1-cyclopropyl-3-methyl-1-prop-2-ynyl-3-[[4-[5-(trifluoromethyl)-1,2,4-oxadiazol-3-yl]phenyl]methyl]urea]
pest or weed control at 200 ppm [2]: ≥ 80%
pest or weed control at 200 ppm [3]: ≥ 80%
inhibition of growth at 20 ppm [1]: ≥ 80%

CC(C)N(C)C(=O)N(C)Cc1ccc(-c2noc(C(F)(F)F)n2)cc1 [Compound 3.79, 1-isopropyl-1,3-dimethyl-3-[[4-[5-(trifluoromethyl)-1,2,4-oxadiazol-3-yl]phenyl]methyl]urea]
pest or weed control at 200 ppm [2]: ≥ 80%
pest or weed control at 200 ppm [3]: ≥ 80%
inhibition of growth at 20 ppm [1]: ≥ 80%

O=C(C1CCCO1)N(Cc1ccc(-c2noc(C(F)(F)F)n2)cc1)Cc1ccco1 (stereo not drawn) [Compound 1.469, N-(2-furylmethyl)-N-[[4-[5-(trifluoromethyl)-1,2,4-oxadiazol-3-yl]phenyl]methyl]-tetrahydrofuran-2-carboxamide]
pest or weed control at 200 ppm [2]: ≥ 80%
pest or weed control at 200 ppm [3]: ≥ 80%
inhibition of growth at 20 ppm [1]: ≥ 80%

CCC(C)N(Cc1ccc(-c2noc(C(F)(F)F)n2)cc1)C(=O)C=CC(C)=O (stereo not drawn) [Compound 1.396, 4-oxo-N-sec-butyl-N-[[4-[5-(trifluoromethyl)-1,2,4-oxadiazol-3-yl]phenyl]methyl]-pent-2-enamide]
pest or weed control at 200 ppm [2]: ≥ 80%
pest or weed control at 200 ppm [3]: ≥ 80%
inhibition of growth at 20 ppm [1]: ≥ 80%

COCCOCC(=O)N(OC)C(C)c1ccc(-c2noc(C(F)(F)F)n2)cc1 (stereo not drawn) [Compound 1.266, N-methoxy-2-(2-methoxyethoxy)-N-[1-[4-[5-(trifluoromethyl)-1,2,4-oxadiazol-3-yl]phenyl]ethyl]-acetamide]
pest or weed control at 200 ppm [2]: ≥ 80%
pest or weed control at 200 ppm [3]: ≥ 80%
inhibition of growth at 20 ppm [1]: ≥ 80%

COCCN(Cc1ccc(-c2noc(C(F)(F)F)n2)cc1)C(=O)c1ccoc1 [Compound 1.362, N-(2-methoxyethyl)-N-[[4-[5-(trifluoromethyl)-1,2,4-oxadiazol-3-yl]phenyl]methyl]-furan-3-carboxamide]
pest or weed control at 200 ppm [2]: ≥ 80%
pest or weed control at 200 ppm [3]: ≥ 80%
inhibition of growth at 20 ppm [1]: ≥ 80%

COC(C)C(=O)N(C)Cc1ccc(-c2noc(C(F)(F)F)n2)cc1 (stereo not drawn) [Compound 1.530, 2-methoxy-N-methyl-N-[[4-[5-(trifluoromethyl)-1,2,4-oxadiazol-3-yl]phenyl]methyl]-propanamide]
pest or weed control at 200 ppm [2]: ≥ 80%
pest or weed control at 200 ppm [3]: ≥ 80%
inhibition of growth at 20 ppm [1]: ≥ 80%

C=CCN(C)C(=O)N(CC)Cc1ccc(-c2noc(C(F)(F)F)n2)cc1 [Compound 3.97, 1-allyl-3-ethyl-1-methyl-3-[[4-[5-(trifluoromethyl)-1,2,4-oxadiazol-3-yl]phenyl]methyl]urea]
pest or weed control at 200 ppm [2]: ≥ 80%
pest or weed control at 200 ppm [3]: ≥ 80%
inhibition of growth at 20 ppm [1]: ≥ 80%

CCN(Cc1ccc(-c2noc(C(F)(F)F)n2)cc1)C(=O)CCl [Compound 1.502, 2-chloro-N-ethyl-N-[[4-[5-(trifluoromethyl)-1,2,4-oxadiazol-3-yl]phenyl]methyl]-acetamide]
pest or weed control at 200 ppm [2]: ≥ 80%
pest or weed control at 200 ppm [3]: ≥ 80%
inhibition of growth at 20 ppm [1]: ≥ 80%
